According to patent US5648366A, “Substituted pyrrolidin-3-yl-alkyl-piperidines” (Merrell Pharmaceuticals Inc., priority 1995, dated 1997):

Target: T1, NK-3 receptor (Cavia porcellus, UniProt P30098)
T1 construct: freshly collected guinea pig cerebral cortex; from tissue; host or cells: guinea pig cerebral cortex membranes
T1 sequence (P30098 1-440): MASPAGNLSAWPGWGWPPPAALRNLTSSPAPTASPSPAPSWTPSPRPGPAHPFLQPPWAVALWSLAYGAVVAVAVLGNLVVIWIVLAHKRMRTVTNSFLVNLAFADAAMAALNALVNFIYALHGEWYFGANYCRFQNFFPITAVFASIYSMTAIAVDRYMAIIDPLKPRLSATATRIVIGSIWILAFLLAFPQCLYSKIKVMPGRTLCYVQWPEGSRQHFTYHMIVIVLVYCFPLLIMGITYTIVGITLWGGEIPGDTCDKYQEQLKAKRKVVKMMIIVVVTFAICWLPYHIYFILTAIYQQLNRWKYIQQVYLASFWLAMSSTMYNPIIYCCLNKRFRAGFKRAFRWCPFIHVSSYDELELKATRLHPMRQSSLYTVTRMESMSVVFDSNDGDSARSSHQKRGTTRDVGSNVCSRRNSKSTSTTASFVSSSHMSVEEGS
Assay: Antagonism of iodinated tachykinin (125I-eledoisin) binding to NK3 receptor in guinea pig cerebral cortex
Method: ANTAGONISM OF IODINATED TACHYKININ BINDING TO NK1 AND NK2 RECEPTORS BY PUTATIVE ANTAGONISTS
The NK1 receptor affinity of proposed tachykinin antagonists was evaluated in guinea pig lungs (Keystone Biologicals, Cleveland, Ohio), affinity for the NK2 receptor evaluated in HSKR-1 cells (which are mouse 3T3 fibroblasts expressing the human jejunal NK2 receptor) and NK-3 receptor affinity was evaluated in freshly collected guinea pig cerebral cortex. Tissues or cells were homogenized with a Polytron in 15 volumes of 50 mM Tris-HCl buffer (pH 7.4, 4° C.) and centrifuged. The pellet was resuspended in Tris-HCl buffer and was centrifuged; the pellet was washed twice by resuspension. The final pellet was resuspended at a concentration of 40 mg/ml for tissues (guinea pig lung and cerebral cortex) and 20 mg/ml for cells in incubation buffer and remained at room temperature for at least 15 min prior to use. […] Filter bound radioactivity was quantitated in a gamma counter. […] Specific binding was calculated by subtracting nonspecific binding from total binding. Competition of iodinated SP, NKA, or eledoisin binding by test compounds or standards was expressed as a percentage of this maximum competition. […]

## COc1cc(C(=O)N2CCC(CCN3CCC(C(N)=O)(c4ccccc4)CC3)(c3ccc(Cl)c(Cl)c3)C2)cc(OC)c1OC (stereo not shown) [Example 3, 1-[2-[3-(3,4-dichloro-phenyl)-1-(3,4,5-trimethoxy-benzoyl)-pyrrolidin-3-yl]-ethyl]-4-phenyl-piperidine-4-carboxylic acid amide]
  affinity for NK3 receptors (in words): high affinity
